Laboratory results from patent publication US6642392B1 (priority 1997, dated 2003).

Key:
Assay type in all cases: in vivo
[1] = test system: Eiysiphe graminis f. sp. tritici; test: Test A: wheat powdery mildew, preventive spray on wheat seedlings; settings: for Test A disease control rating (100 = 100% disease control, 0 = no disease control): wheat seedlings sprayed to run-off, inoculated the following day, rating relative to controls, unmarked compounds (standard test rate); for Test A disease control rating: wheat powdery mildew, 100 = 100% disease control, 0 = no control relative to controls, unmarked entries (standard test concentration)
Method: (§1) The resulting test suspensions were then used in the following tests. […]
The test suspension was sprayed to the point of run-off on wheat seedlings. The following day the seedlings were inoculated with a spore dust of Eiysiphe graminis f. sp. tritici, (the causal agent of wheat powdery mildew) and incubated in a growth chamber at 20° C. for 7 days, after which disease ratings were made.
(§2) Results for Tests A-E are given in Table A. In the table, a rating of 100 indicates 100% disease control and a rating of 0 indicates no disease control (relative to the controls). A dash (-) indicates no test results. ND indicates disease control not determined due to phytotoxicity.

Puccinia recondita = test: Test B: wheat leaf rust, preventive spray on wheat seedlings; settings: for Test B disease control rating (100 = 100% disease control, 0 = no disease control): wheat seedlings sprayed to run-off, inoculated the following day, rating relative to controls, unmarked compounds (standard test rate); for Test B disease control rating: wheat leaf rust, 100 = 100% disease control, 0 = no control, unmarked entries (standard test concentration)
Method: as §1
The test suspension was sprayed to the point of run-off on wheat seedlings. The following day the seedlings were inoculated with a spore suspension of Puccinia recondita (the causal agent of wheat leaf rust) and incubated in a saturated atmosphere at 20° C. for 24 h, and then moved to a growth chamber at 20° C. for 6 days, after which disease ratings were made.
as §2

Pyricularia oryzae = settings: for Test C disease control rating (100 = 100% disease control, 0 = no disease control): rice seedlings sprayed to run-off, inoculated the following day, rating relative to controls, unmarked compounds (standard test rate); for Test C disease control rating: rice blast, 100 = 100% disease control, 0 = no control, unmarked entries (standard test concentration)
Phytophthora infestans = settings: for Test D disease control rating (100 = 100% disease control, 0 = no disease control): tomato seedlings sprayed to run-off, inoculated the following day, rating relative to controls, unmarked compounds (standard test rate); for Test D disease control rating: tomato late blight, 100 = 100% disease control, 0 = no control, unmarked entries (standard test concentration)
Botrytis cinerea = test: Test E: gray mold, preventive spray on cucumber seedlings; settings: gray mold on cucumber; 100 = 100% disease control, 0 = no control; unmarked entries (standard test concentration)
Method: The resulting test suspensions were then used in the following tests. Spraying these 200 ppm test suspensions to the point of run-off on the test plants is the equivalent of a rate of 500 g/ha.
The test suspension was sprayed to the point of run-off on cucumber seedlings. The following day the seedlings were inoculated with a spore suspension of Botrytis cinerea (the causal agent of gray mold on many crops) and incubated in a saturated atmosphere at 20° C. for 48 h, and moved to a growth chamber at 20° C. for 5 days, after which disease ratings were made.
as §2

Row | SMILES | Test A disease control rating (100 = 100% disease control, 0 = no disease control) [1] [%] | Test B disease control rating (100 = 100% disease control, 0 = no disease control) (Puccinia recondita) [%] | Test C disease control rating (100 = 100% disease control, 0 = no disease control) (Pyricularia oryzae) [%] | Test D disease control rating (100 = 100% disease control, 0 = no disease control) (Phytophthora infestans) [%] | Test A disease control rating [1] [%] | Test B disease control rating (Puccinia recondita) [%] | Test C disease control rating (Pyricularia oryzae) [%] | Test E disease control rating (Botrytis cinerea) [%] | Test D disease control rating (Phytophthora infestans) [%]
1 | CCC1(C(=O)NC(C)COc2cc(F)c(F)cc2Br)C(C)C1(Cl)Cl (stereo not drawn) [compound 235] | 0 | 0 | 91 | 0 |  |  |  |  | 
2 | CC(COc1cc(Cl)ccc1F)NC(=O)C(C#N)C(C)(C)C=CF (mixture of isomers) [compound 224] | 85 | 0 | 100 | 5 |  |  |  |  | 
3 | CC(COc1cc(F)ccc1OC(F)(F)C(F)F)NC(=O)C(C#N)C(C)(C=CF)CF (mixture of isomers) [compound 225] | 91 | 86 | 100 | 5 |  |  |  |  | 
4 | CCC1(C(=O)NCCCn2c(C#N)cc(Cl)c2Cl)C(C)C1(Cl)Cl (stereo not drawn) [compound 151] |  |  |  |  | 0 | 0 | 91 | 0 | 
5 | C#CC(C)(C)C(C#N)C(=O)NC(C)COc1cc(Cl)ccc1F (mixture of isomers) [compound 320] | 59 | 68 | 100 | 0 |  |  |  |  | 
6 | C=CC(C)(C)C(C#N)C(=O)N[C@H](C)COc1cc(Cl)ccc1F (single isomer, unassigned) [200b] |  |  |  |  | 0 | 0 | 100 |  | 5
7 | CCC1(C(=O)NC(C)COc2ccc(F)c(F)c2F)C(C)C1(Cl)Cl (stereo not drawn) [compound 238] | 62 | 0 | 74 | 0 |  |  |  |  | 
8 | CC(COc1c(Cl)cc(F)cc1Cl)NC(=O)C(C#N)C(C)(C)C (mixture of isomers) [compound 197] |  |  |  |  | 59 | 0 | 86 |  | 0
9 | CCC1(C(=O)NC(C)COc2ccccc2C#N)C(C)C1(Cl)Cl (mixture of isomers) [89b] |  |  |  |  | 26 | 68 | 91 | 47 | 
10 | CCC1(C(=O)NC(C)COc2ccccc2)C(C)C1(Cl)Cl (mixture of isomers) [77a] |  |  |  |  | 73 | 28 | 86 | 0 | 
11 | CCC1(C(=O)NCCCn2c(Cl)ccc2C#N)C(C)C1(Cl)Cl (stereo not drawn) [compound 152] |  |  |  |  | 55 | 68 | 86 | 0 | 
12 | C=CC(C)(C)C(C#N)C(=O)N[C@H](C)COc1cc(Cl)ccc1F (single isomer, unassigned) [200a] |  |  |  |  | 0 | 0 | 100 |  | 5
13 | CC(COc1cc(Cl)ccc1F)NC(=O)C(C#N)C(C)C(C)(C)C (mixture of isomers) [compound 199] |  |  |  |  | 85 | 68 | 97 |  | 5
14 | Cc1ccc(Cl)c(OCC(C)NC(=O)C(C#N)C(C)(C=CF)CF)c1 (mixture of isomers) [compound 227] | 0 | 0 | 100 | 0 |  |  |  |  | 
15 | CC(COc1c(Br)cc(F)cc1Br)NC(=O)C(C#N)C(C)(C)C (mixture of isomers) [compound 196] |  |  |  |  | 0 | 0 | 86 |  | 0
16 | Cc1ccc(F)c(OCC(C)NC(=O)C(C#N)C(C)(C=CF)CF)c1 (mixture of isomers) [compound 226] | 0 | 0 | 100 | 0 |  |  |  |  | 
17 | CCCc1ccccc1OCC(C)NC(=O)C(C#N)C(C)(C)C (mixture of isomers) [21b] |  |  |  |  | 37 | 27 | 99 | 0 | 
18 | C[C@H](COc1cc(Cl)ccc1F)NC(=O)C(C#N)C(C)(C)C (single isomer, unassigned) [198a] |  |  |  |  | 75 | 28 | 100 |  | 5
19 | CCC1(C(=O)NC(C)COc2cc(Cl)ccc2F)C(C)C1(Cl)Cl (stereo not drawn) [compound 252] | 0 | 0 | 99 | 5 |  |  |  |  | 
20 | CC(COc1c(F)c(F)cc(F)c1F)NC(=O)C(C#N)C(C)(C)C (mixture of isomers) [compound 195] |  |  |  |  | 85 | 0 | 99 |  | 32
21 | CCC1(C(=O)NC(C)COc2cccc(Br)c2)C(C)C1(Cl)Cl (mixture of isomers) [85a] |  |  |  |  | 55 | 0 | 53 | 0 | 
22 | CCC1(C(=O)NC(C)COc2ccccc2F)C(C)C1(Cl)Cl (mixture of isomers) [78b] |  |  |  |  | 84 | 0 | 99 | 0 | 
23 | C[C@H](COc1cc(Cl)ccc1F)NC(=O)C(C#N)C(C)(C)C (single isomer, unassigned) [198b] |  |  |  |  | 59 | 28 | 100 |  | 5
24 | CCC1(C(=O)NC(C)COc2cc(F)ccc2Cl)C(C)C1(Cl)Cl (stereo not drawn) [compound 253] | 59 | 0 | 100 | 0 |  |  |  |  | 
